The values that follow come from patent US20220259212A1, “INHIBITORS OF INDOLEAMINE 2,3-DIOXYGENASE AND/OR TRYPTOPHAN 2,3-DIOXYGENASE” (Idorsia Pharmaceuticals Ltd, priority 2019, published 2022).

In experiment [1] the target is T1, Recombinant full-length human IDO1 (Homo sapiens, UniProt P14902).
T1 construct: Recombinant full-length human IDO1 with a N-terminal hexahistidine tag; hexahistidine (N); made in house; host or cells: E. coli
Description: IDO1 enzymatic assay (NFK quantified by LCMS). The format is biochemical. To be noted: 2 nM enzyme, 5 μM L-tryptophan, 30 min pre-incubation, pH6.5; mean if measured multiple times; read-out: hIDO activity (IC50 in nM). The method, boiled down:
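His-tagged full-length IDO1 (E. coli, 2 nM final) in pH 6.5 phosphate with ascorbate, methylene blue and catalase was preincubated 30 min at RT with compound (10 µM–0.5 nM, 0.6% DMSO), then run 30 min at RT with 5 µM L-Trp. NFK was measured by LCMS against a d5-Trp standard. IC50 came from a four-parameter fit of duplicates.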

Experiment [2] concerns the target T2, IDO1 in SKOV3 cells (Homo sapiens, UniProt P14902).
T2 construct: SKOV3 cells (NCI, No. 0503405) which upregulate IDO1 after stimulation with IFNγ; host or cells: SKOV3 cells stimulated with IFNγ
The experiment is described as follows: Cell-based IDO inhibitory activity in IFNγ-stimulated SKOV3 cells (NFK + kynurenine by LCMS). The note with it: IFNγ 50 ng/ml, 200 uM L-tryptophan, 24 hours. In outline: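 SKOV3 cells (4000/well, pre-cultured 24 h) were treated with compound (10 uM-40 nM) plus 200 uM L-tryptophan and 50 ng/ml IFNγ for 24 h at 37° C. N-formylkynurenine plus kynurenine in supernatant was measured by LCMS against a d5-tryptophan internal standard. IC50 was fitted against 0.2% DMSO and reference-inhibitor controls, in duplicate, with repeat measurements averaged.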

In experiment [3] the target is T3, Recombinant human TDO comprising amino acids 19-407 (Homo sapiens, UniProt P48775).
T3 construct: human TDO comprising amino acids 19-407; hexahistidine (N); made in house; host or cells: E. coli
The experiment is described as follows: TDO2 enzymatic assay (NFK quantified by LCMS). The format is biochemical. The note with it: 15 nM enzyme, 200 μM L-tryptophan, 30 min pre-incubation, pH7; mean if measured multiple times; read-out: hTDO activity (IC50 in nM). In outline: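 E. coli-expressed N-terminal His-tagged TDO (15 nM) in pH 7 phosphate buffer with ascorbate and catalase, preincubated 30 min at RT with compound (10 μM to 0.5 nM, 0.6% DMSO). Reaction started with 200 μM L-tryptophan for 30 min at RT; NFK measured by LCMS against deuterated internal standard, IC50 by four-parameter fit, duplicates.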

The IC50 is the concentration that inhibits the measured activity by half.

T2 sequence (P14902 whole entry): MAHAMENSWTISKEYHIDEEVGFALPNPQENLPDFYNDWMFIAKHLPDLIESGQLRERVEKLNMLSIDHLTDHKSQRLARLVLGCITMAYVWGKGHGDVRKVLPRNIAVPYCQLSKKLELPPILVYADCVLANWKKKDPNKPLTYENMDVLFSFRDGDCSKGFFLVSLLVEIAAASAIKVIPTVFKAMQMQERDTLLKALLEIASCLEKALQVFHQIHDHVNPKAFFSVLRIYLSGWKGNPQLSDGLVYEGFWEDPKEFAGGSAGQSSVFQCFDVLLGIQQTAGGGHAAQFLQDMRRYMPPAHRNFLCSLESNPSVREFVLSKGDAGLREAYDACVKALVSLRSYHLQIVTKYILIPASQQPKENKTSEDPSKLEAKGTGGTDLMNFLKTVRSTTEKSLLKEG
T1 sequence (P14902 whole entry): as above
T3 sequence (P48775 19-406 limits assumed): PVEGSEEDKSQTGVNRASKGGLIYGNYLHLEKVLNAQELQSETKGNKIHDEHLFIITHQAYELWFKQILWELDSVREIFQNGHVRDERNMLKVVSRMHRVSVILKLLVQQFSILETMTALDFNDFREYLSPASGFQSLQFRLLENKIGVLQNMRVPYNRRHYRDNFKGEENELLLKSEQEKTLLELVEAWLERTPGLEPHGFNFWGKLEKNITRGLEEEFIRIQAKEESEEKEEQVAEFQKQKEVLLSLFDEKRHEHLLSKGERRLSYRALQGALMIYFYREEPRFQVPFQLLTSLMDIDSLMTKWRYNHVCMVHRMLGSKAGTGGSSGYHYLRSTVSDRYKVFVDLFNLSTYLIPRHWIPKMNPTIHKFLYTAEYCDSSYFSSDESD

For `COc1ccc(-n2cc([C@H](O)c3c(C4CC4)ncc4cncn34)nn2)c(F)c1Cl` [Example 33, (R)-[1-(3-Chloro-2-fluoro-4-methoxy-phenyl)-1H-[1,2,3]triazol-4-yl]-(6-cyclopropyl-imidazo[1,5-a]pyrazin-5-yl)-methanol], the IC50 was 5.33 nM in experiment [1], 127 nM in experiment [2] and > 10200 nM in experiment [3].

Regarding `CCc1ccc2cncn2c1[C@@H](O)c1cn(-c2ccc(OC)cc2)nn1` [Example 34a, (R)-(6-Ethyl-imidazo[1,5-a]pyridin-5-yl)-[1-(4-methoxy-phenyl)-1H-[1,2,3]triazol-4-yl]-methanol], the IC50 in experiment [1] is 1.82 nM; in experiment [2] it was 7.92 nM; in experiment [3] it was > 10200 nM.

Take `CCc1ccc2cncn2c1[C@@H](O)c1cn(-c2cc(F)c(OC)cc2F)nn1` [Example 35a, (R)-[1-(2,5-Difluoro-4-methoxy-phenyl)-1H-[1,2,3]triazol-4-yl]-(6-ethyl-imidazo[1,5-a]pyridin-5-yl)-methanol]: the values for the IC50 in experiment [1], in experiment [2] and in experiment [3] were 2.39 nM, 0.95 nM and > 10200 nM, respectively.

In the case of `O[C@@H](c1cn(-c2ccc(OCC3COC3)c(F)c2)nn1)c1c(C2CC2)ncc2cncn12` [Example 36, (R)-(6-Cyclopropyl-imidazo[1,5-a]pyrazin-5-yl)-{1-[3-fluoro-4-(oxetan-3-ylmethoxy)-phenyl]-1H-[1,2,3]triazol-4-yl}-methanol], the IC50 in experiment [1] was 8.33 nM; in experiment [2], 16.8 nM; in experiment [3], > 10200 nM.

With `O[C@@H](c1cn(-c2ccc(N3CCCC3)cc2)nn1)c1c(C2CC2)ncc2cncn12` [Example 40, (R)-(6-Cyclopropyl-imidazo[1,5-a]pyrazin-5-yl)-[1-(4-pyrrolidin-1-yl-phenyl)-1H-[1,2,3]triazol-4-yl]-methanol], the IC50 in experiment [1] is 16.5 nM; in experiment [2] it was 154 nM; in experiment [3], > 10200 nM.

In the case of `Nc1ccc(-n2cc([C@H](O)c3c(C4CC4)ncc4cncn34)nn2)cc1` [Example 41, (R)-[1-(4-Amino-phenyl)-1H-[1,2,3]triazol-4-yl]-(6-cyclopropyl-imidazo[1,5-a]pyrazin-5-yl)-methanol], the IC50 in experiment [1] was 17.5 nM; in experiment [2] it was 212 nM; in experiment [3], > 10200 nM.

For the compound `CNc1ccc(-n2cc([C@H](O)c3c(C4CC4)ncc4cncn34)nn2)cc1` [Example 42, (R)-(6-Cyclopropyl-imidazo[1,5-a]pyrazin-5-yl)-[1-(4-methylamino-phenyl)-1H-[1,2,3]triazol-4-yl]-methanol], the IC50 in experiment [1] was 13.5 nM; in experiment [2], 199 nM; in experiment [3] it was > 10200 nM.

On to `CN(C)c1ccc(-n2cc([C@H](O)c3c(C4CC4)ncc4cncn34)nn2)cc1` [Example 44, (R)-(6-Cyclopropyl-imidazo[1,5-a]pyrazin-5-yl)-[1-(4-dimethylamino-phenyl)-1H-[1,2,3]triazol-4-yl]-methanol], for which the IC50 in experiment [1] is 14.5 nM; in experiment [2] it was 377 nM; in experiment [3] it was > 10200 nM.

For the compound `O[C@@H](c1cn(-c2ccc(N3CC4(COC4)C3)cc2)nn1)c1c(C2CC2)ncc2cncn12` [Example 45, (R)-(6-Cyclopropyl-imidazo[1,5-a]pyrazin-5-yl)-{1-[4-(2-oxa-6-aza-spiro[3.3]hept-6-yl)-phenyl]-1H-[1,2,3]triazol-4-yl}-methanol], the IC50 was 15 nM in experiment [1], 56.8 nM in experiment [2] and > 10200 nM in experiment [3].

Consider `O[C@@H](c1cn(-c2ccc(N3CCC34COC4)cc2)nn1)c1c(C2CC2)ncc2cncn12` [Example 46, (R)-(6-Cyclopropyl-imidazo[1,5-a]pyrazin-5-yl)-{1-[4-(6-oxa-1-aza-spiro[3.3]hept-1-yl)-phenyl]-1H-[1,2,3]triazol-4-yl}-methanol], for which the IC50 in experiment [1] was 15.1 nM; in experiment [2] it was 356 nM; in experiment [3] it was > 10200 nM.

Turning to `CN1CCc2cc(-n3cc([C@H](O)c4c(C5CC5)ncc5cncn45)nn3)ccc21` [Example 47, (R)-(6-Cyclopropyl-imidazo[1,5-a]pyrazin-5-yl)-[1-(1-methyl-2,3-dihydro-1H-indol-5-yl)-1H-[1,2,3]triazol-4-yl]-methanol], the IC50 is 7.76 nM in experiment [1], 145 nM in experiment [2] and > 10200 nM in experiment [3].
